# Experimental data taken from patent US11117892B2, “Pyrrolo-pyridine derivative compound, method for preparing same, and pharmaceutical composition containing same as active ingredient for prevention or treatment of protein kinase-related diseases” (DAEGU-GYEONGBUK MEDICAL INNOVATION FOUNDATION, priority 2017, dated 2021).
# How the values were obtained:
# Experiment in all cases: scanMAX Kinase assay panel
# Assay type in all cases: binding
# Settings in all cases: read-out: % control
# CAMK2B = CAMK2B (Homo sapiens (Human), UniProt Q13554)
# Method in brief: (§1)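 Each compound is run against the kinase on the scanMAX selectivity panel. Its signal is then expressed relative to a DMSO negative control (100%) and a positive control compound (0%).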
# MLK2 = MLK2 (Homo sapiens (Human), UniProt Q02779)
# Method in brief: as §1
# MYO3B = MYO3B (Homo sapiens (Human), UniProt Q8WXR4)
# Method in brief: as §1
# ACVR2B = ACVR2B (Homo sapiens (Human), UniProt Q13705)
# Method in brief: as §1
# CHEK1 = CHEK1 (Homo sapiens (Human), UniProt O14757)
# Method in brief: as §1
# ERK1 = ERK1 (Homo sapiens (Human), UniProt P27361)
# Method in brief: as §1
# NEK9 = NEK9 (Homo sapiens (Human), UniProt Q8TD19)
# Method in brief: as §1
# PAK1 = PAK1 (Homo sapiens (Human), UniProt Q13153)
# Method in brief: as §1
# AURKC = AURKC (Homo sapiens (Human), UniProt Q9UQB9)
# Method in brief: as §1
# ROS1 = ROS1 (Homo sapiens (Human), UniProt P08922)
# Method in brief: as §1
# HASPIN = HASPIN (Homo sapiens (Human), UniProt Q8TF76)
# Method in brief: as §1
# [1] = biological target: ABL1(F317I)-phosphorylated (Homo sapiens (Human), UniProt P00519, F317I)
# Method in brief: as §1
# MST1 = MST1 (Homo sapiens (Human), UniProt Q13043)
# Method in brief: as §1
# MLK3 = MLK3 (Homo sapiens (Human), UniProt Q16584)
# Method in brief: as §1
# MYLK4 = MYLK4 (Homo sapiens (Human), UniProt Q86YV6)
# Method in brief: as §1
# [2] = biological target: RPS6KA4(Kin.Dom.1-N-terminal) (Homo sapiens (Human), UniProt O75676)
# Method in brief: as §1
# FLT3(K663Q) = FLT3(K663Q) (Homo sapiens (Human), UniProt P36888, K663Q)
# Method in brief: as §1
# CSNK1G2 = CSNK1G2 (Homo sapiens (Human), UniProt P78368)
# Method in brief: as §1
# PCTK3 = PCTK3 (Homo sapiens (Human), UniProt Q07002)
# Method in brief: as §1
# PYK2 = PYK2 (Homo sapiens (Human), UniProt Q14289)
# Method in brief: as §1
# YANK2 = YANK2 (Homo sapiens (Human), UniProt Q9NY57)
# Method in brief: as §1
# IRAK1 = IRAK1 (Homo sapiens (Human), UniProt P51617)
# Method in brief: as §1
# [3] = biological target: ABL1(F317L)-phosphorylated (Homo sapiens (Human), UniProt P00519, F317L)
# Method in brief: as §1
# PDGFRA = PDGFRA (Homo sapiens (Human), UniProt P16234)
# Method in brief: as §1
# STK35 = STK35 (Homo sapiens (Human), UniProt Q8TDR2)
# Method in brief: as §1
# KIT-autoinhibited = KIT-autoinhibited (Homo sapiens (Human), UniProt P10721)
# Method in brief: as §1
# [4] = biological target: RSK3(Kin.Dom.1-N-terminal) (Homo sapiens (Human), UniProt Q15349)
# Method in brief: as §1
# SIK = SIK (Homo sapiens (Human), UniProt P57059)
# Method in brief: as §1
# PRKCH = PRKCH (Homo sapiens (Human), UniProt P24723)
# Method in brief: as §1
# GRK1 = GRK1 (Homo sapiens (Human), UniProt Q15835)
# Method in brief: as §1
# EPHB1 = EPHB1 (Homo sapiens (Human), UniProt P54762)
# Method in brief: as §1
# ASK2 = ASK2 (Homo sapiens (Human), UniProt O95382)
# Method in brief: as §1
# EGFR(G719S) = EGFR(G719S) (Homo sapiens (Human), UniProt P00533, G719S)
# Method in brief: as §1
# ERK4 = ERK4 (Homo sapiens (Human), UniProt P31152)
# Method in brief: as §1
# RET(V804M) = RET(V804M) (Homo sapiens (Human), UniProt P07949, V804M)
# Method in brief: as §1
# IKK-alpha = IKK-alpha (Homo sapiens (Human), UniProt O15111)
# Method in brief: as §1
# S6K1 = S6K1 (Homo sapiens (Human), UniProt P23443)
# Method in brief: as §1
# ERN1 = ERN1 (Homo sapiens (Human), UniProt O75460)
# Method in brief: as §1
# PRKG1 = PRKG1 (Homo sapiens (Human), UniProt Q13976)
# Method in brief: as §1
# CHEK1, sequence (O14757 whole entry): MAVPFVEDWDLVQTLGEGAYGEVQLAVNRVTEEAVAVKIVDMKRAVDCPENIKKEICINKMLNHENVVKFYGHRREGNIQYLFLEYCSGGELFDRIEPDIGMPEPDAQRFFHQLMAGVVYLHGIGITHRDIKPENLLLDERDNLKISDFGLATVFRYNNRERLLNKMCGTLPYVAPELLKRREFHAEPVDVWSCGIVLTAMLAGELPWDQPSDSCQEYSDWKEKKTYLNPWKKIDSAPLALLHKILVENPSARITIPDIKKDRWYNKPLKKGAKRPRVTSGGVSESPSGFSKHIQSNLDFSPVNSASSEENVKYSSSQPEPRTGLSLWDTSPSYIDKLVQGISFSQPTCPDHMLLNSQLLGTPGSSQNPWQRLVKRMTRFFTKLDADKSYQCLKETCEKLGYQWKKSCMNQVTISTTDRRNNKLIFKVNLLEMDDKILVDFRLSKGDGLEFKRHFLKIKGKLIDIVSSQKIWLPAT
# ERK1, sequence (P27361 whole entry): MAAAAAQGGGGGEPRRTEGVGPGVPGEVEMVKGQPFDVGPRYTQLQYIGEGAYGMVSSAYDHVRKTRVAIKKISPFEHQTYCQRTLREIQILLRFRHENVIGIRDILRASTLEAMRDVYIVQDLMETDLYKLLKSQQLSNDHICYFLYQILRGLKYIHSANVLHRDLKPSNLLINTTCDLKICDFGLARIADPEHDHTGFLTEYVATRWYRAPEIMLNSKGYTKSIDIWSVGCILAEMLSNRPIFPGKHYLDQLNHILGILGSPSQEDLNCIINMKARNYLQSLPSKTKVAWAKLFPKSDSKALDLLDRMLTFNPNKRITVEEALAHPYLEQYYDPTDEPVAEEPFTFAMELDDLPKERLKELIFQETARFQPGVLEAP
# PYK2, sequence (Q14289 whole entry): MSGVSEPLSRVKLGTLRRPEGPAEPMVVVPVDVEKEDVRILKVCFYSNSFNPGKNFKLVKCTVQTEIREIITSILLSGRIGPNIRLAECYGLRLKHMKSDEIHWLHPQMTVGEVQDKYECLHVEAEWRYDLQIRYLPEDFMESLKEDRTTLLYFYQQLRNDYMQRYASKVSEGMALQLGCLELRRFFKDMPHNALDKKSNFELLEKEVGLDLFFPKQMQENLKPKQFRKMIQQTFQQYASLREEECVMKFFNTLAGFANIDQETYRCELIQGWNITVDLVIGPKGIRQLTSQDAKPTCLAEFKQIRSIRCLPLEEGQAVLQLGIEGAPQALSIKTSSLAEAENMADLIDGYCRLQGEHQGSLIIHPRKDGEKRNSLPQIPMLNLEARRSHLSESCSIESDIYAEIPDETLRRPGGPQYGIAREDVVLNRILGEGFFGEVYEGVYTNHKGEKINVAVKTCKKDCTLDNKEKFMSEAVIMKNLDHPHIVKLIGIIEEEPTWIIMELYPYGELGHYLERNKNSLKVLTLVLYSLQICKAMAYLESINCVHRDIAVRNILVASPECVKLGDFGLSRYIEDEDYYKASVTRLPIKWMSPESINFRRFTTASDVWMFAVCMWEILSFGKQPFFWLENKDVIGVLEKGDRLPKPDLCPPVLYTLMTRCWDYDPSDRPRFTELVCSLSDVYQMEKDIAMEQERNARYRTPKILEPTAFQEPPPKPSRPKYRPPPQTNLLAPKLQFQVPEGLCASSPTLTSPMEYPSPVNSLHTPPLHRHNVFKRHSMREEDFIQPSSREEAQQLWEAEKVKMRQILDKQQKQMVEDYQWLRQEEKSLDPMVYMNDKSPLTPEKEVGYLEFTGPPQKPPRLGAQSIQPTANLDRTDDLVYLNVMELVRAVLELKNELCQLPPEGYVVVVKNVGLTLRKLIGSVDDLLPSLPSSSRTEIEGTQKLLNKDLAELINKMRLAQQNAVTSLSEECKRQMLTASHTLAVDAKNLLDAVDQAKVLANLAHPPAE
# AURKC, sequence (Q9UQB9 whole entry): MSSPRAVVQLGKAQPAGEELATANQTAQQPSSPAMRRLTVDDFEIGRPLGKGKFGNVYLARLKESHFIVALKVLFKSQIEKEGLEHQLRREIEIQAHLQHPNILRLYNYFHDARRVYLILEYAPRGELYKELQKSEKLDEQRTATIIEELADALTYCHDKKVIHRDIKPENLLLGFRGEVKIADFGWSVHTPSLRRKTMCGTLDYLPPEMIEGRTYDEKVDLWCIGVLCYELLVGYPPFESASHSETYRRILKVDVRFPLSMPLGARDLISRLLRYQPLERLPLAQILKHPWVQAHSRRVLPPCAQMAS
# HASPIN, sequence (Q8TF76 whole entry): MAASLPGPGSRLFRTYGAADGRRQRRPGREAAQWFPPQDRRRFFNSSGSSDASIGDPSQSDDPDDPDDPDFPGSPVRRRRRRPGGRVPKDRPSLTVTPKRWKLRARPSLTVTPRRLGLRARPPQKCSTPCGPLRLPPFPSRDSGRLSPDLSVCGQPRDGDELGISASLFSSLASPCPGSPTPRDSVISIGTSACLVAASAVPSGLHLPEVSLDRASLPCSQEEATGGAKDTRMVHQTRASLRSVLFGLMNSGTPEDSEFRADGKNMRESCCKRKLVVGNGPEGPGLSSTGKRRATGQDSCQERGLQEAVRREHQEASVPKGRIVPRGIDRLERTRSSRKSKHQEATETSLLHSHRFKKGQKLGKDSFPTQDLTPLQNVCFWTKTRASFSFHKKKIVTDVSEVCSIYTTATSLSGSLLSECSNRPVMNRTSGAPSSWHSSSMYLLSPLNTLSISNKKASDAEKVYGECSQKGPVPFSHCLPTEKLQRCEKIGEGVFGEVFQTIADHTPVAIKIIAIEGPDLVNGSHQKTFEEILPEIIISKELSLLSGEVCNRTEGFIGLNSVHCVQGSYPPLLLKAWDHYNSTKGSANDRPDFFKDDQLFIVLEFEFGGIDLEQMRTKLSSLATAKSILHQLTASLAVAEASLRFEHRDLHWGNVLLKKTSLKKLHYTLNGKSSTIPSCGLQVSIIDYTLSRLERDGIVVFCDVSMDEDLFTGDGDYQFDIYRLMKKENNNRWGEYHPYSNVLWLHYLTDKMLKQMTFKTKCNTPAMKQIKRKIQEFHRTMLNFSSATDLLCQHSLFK
# MLK3, sequence (Q16584 whole entry): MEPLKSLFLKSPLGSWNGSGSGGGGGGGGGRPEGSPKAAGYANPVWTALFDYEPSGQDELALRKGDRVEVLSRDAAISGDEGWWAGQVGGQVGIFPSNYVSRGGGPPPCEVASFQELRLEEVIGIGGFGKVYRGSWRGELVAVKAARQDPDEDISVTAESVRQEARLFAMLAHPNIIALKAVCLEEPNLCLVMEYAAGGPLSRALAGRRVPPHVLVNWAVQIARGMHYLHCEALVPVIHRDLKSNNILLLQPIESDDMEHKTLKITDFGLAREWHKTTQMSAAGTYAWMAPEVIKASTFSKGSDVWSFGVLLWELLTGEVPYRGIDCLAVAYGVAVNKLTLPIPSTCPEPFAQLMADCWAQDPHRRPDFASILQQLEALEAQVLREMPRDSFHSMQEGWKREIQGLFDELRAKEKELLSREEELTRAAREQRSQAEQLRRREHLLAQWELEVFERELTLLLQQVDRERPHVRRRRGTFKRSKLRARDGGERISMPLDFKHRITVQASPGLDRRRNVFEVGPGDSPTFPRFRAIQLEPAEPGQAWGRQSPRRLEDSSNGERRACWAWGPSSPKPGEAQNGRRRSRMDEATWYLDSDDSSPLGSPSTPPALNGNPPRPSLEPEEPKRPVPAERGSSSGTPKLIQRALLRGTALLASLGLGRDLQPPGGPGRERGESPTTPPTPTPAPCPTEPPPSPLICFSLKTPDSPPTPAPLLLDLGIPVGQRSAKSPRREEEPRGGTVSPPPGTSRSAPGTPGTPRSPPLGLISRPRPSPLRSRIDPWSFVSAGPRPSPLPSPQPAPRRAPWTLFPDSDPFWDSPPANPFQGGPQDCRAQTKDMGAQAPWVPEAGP
# NEK9, sequence (Q8TD19 whole entry): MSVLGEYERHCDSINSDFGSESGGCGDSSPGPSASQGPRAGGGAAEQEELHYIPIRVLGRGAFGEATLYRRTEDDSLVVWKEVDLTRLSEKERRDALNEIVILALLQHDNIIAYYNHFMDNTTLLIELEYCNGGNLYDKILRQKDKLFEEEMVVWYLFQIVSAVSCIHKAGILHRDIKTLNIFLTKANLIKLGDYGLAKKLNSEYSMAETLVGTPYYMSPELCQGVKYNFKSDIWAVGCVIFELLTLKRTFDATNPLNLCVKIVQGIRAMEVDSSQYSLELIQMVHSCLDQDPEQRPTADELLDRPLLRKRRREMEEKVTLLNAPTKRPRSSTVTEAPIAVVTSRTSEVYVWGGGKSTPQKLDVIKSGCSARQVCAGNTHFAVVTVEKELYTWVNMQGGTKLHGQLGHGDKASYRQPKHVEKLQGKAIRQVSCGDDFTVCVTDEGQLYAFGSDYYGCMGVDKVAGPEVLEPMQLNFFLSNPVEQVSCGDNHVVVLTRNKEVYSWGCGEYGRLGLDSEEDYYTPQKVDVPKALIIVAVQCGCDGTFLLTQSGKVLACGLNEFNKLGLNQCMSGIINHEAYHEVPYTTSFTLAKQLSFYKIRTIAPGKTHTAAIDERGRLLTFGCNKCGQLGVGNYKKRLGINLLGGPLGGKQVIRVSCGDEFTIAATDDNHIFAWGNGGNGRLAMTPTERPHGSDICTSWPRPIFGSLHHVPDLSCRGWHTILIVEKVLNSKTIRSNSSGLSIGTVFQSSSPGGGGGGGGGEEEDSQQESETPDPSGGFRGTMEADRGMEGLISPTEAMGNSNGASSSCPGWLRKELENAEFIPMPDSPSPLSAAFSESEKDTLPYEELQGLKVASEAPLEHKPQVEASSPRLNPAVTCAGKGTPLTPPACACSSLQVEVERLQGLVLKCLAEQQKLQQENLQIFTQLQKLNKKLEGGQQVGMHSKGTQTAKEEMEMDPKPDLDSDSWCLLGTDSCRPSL
SMILES,remaining binding at 1 µM (CAMK2B),remaining binding at 1 µM (MLK2),remaining binding at 1 µM (MYO3B),remaining binding at 1 µM (ACVR2B),remaining binding at 1 µM (CHEK1),remaining binding at 1 µM (ERK1),remaining binding at 1 µM (NEK9),remaining binding at 1 µM (PAK1),remaining binding at 1 µM (AURKC),remaining binding at 1 µM (ROS1),remaining binding at 1 µM (HASPIN),remaining binding at 1 µM [1],remaining binding at 1 µM (MST1),remaining binding at 1 µM (MLK3),remaining binding at 1 µM (MYLK4),remaining binding at 1 µM [2],remaining binding at 1 µM (FLT3(K663Q)),remaining binding at 1 µM (CSNK1G2),remaining binding at 1 µM (PCTK3),remaining binding at 1 µM (PYK2),further results
"CCNc1cc(Nc2ccc(C(=O)N3CCC(N4CCOCC4)CC3)cc2OC)nc2[nH]cc(C#N)c12 [Example 18, 4-(ethylamino)-6-((2-methoxy-4-(4-morpholinopiperidine-1-carbonyl)phenyl)amino)-1H-pyrrolo[2,3-b]pyridine-3-carbonitrile]",73%,72%,73%,100%,100%,100%,91%,92%,92%,83%,7.6%,80%,99%,99%,88%,100%,84%,27%,86%,60%,remaining binding at 1 µM (YANK2): 100%; remaining binding at 1 µM (IRAK1): 79%; remaining binding at 1 µM [3]: 100%; remaining binding at 1 µM (PDGFRA): 77%; remaining binding at 1 µM (STK35): 85%; remaining binding at 1 µM (KIT-autoinhibited): 66%; remaining binding at 1 µM [4]: 92%; remaining binding at 1 µM (SIK): 100%; remaining binding at 1 µM (PRKCH): 95%; remaining binding at 1 µM (GRK1): 81%; remaining binding at 1 µM (EPHB1): 95%; remaining binding at 1 µM (ASK2): 82%; remaining binding at 1 µM (EGFR(G719S)): 80%; remaining binding at 1 µM (ERK4): 98%; remaining binding at 1 µM (RET(V804M)): 99%; remaining binding at 1 µM (IKK-alpha): 44%; remaining binding at 1 µM (S6K1): 70%; remaining binding at 1 µM (ERN1): 24%; remaining binding at 1 µM (PRKG1): 64%
"CCNc1cc(Nc2ccc(C(=O)N3CCC(N4CCOCC4)CC3)cc2OC)nc2[nH]cc(C(F)(F)F)c12 [Example 57, (4-((4-(ethylamino)-3-(trifluoromethyl)-1H-pyrrolo[2,3-b]pyridin-6-yl)amino)-3-methoxyphenyl) (4-morpholinopiperidin-1-yl)methanone]",80%,77%,83%,98%,91%,98%,89%,73%,95%,69%,70%,100%,76%,80%,83%,100%,94%,86%,86%,76%,remaining binding at 1 µM (YANK2): 94%; remaining binding at 1 µM (IRAK1): 100%; remaining binding at 1 µM [3]: 100%; remaining binding at 1 µM (PDGFRA): 100%; remaining binding at 1 µM (STK35): 98%; remaining binding at 1 µM (KIT-autoinhibited): 100%; remaining binding at 1 µM [4]: 75%; remaining binding at 1 µM (SIK): 90%; remaining binding at 1 µM (PRKCH): 99%; remaining binding at 1 µM (GRK1): 94%; remaining binding at 1 µM (EPHB1): 94%; remaining binding at 1 µM (ASK2): 92%; remaining binding at 1 µM (EGFR(G719S)): 92%; remaining binding at 1 µM (ERK4): 93%; remaining binding at 1 µM (RET(V804M)): 95%; remaining binding at 1 µM (IKK-alpha): 100%; remaining binding at 1 µM (S6K1): 100%; remaining binding at 1 µM (ERN1): 61%; remaining binding at 1 µM (PRKG1): 98%
